Square brackets hold non-standard residues; d marks the D form. Peptide text beside a SMILES is read from it.
Experiments:
[1] = tested on: neonatal rat cardiac ventricular myocytes; experiment: Myocyte morphology and contractile fiber organization (phallacidin f-actin stain, confocal microscopy); format: cell-based; conditions: for organization of contractile fibers (f-actin): 48 hours exposure, fluorescent phallacidin stain
Procedure: (§1) Neonatal rat cardiac ventricular myocytes were cultured in 96-well plates 35 as described by Pennica et al., supra. Briefly, myocytes were isolated from one-day-old Sprague-Dawley rats by a series of collagenase digestions followed by Percoll™ gradient purification. Iwaki et al., J Biol Chem., 265: 13809-13817 (1990). The myocytes, which band at the lower gradient interface, were collected, washed twice, and re-suspended in D-MEM/F12 medium with 15% (vol/vol) fetal calf serum. The cells were diluted into serum-free D-MEM/F12 medium supplemented with 10 μg/mL transferrin, 1 μg/mL insulin, 1 μg/mL aprotinin, 2-mmol/L glutamine, 100 U/mL penicillin G, and 100 μg/mL streptomycin (assay medium) to a final density of 7.5×10^4 cells per mL. The final serum concentration of this assay medium with cells was <0.1%. Myocytes were plated 200 μL per well in 96-well, flat-bottomed plates that had previously been coated with D-MEM/F12 medium with 4% (vol/vol) fetal calf serum for 8 hours at 37° C. After 24 hours at 37° C. in 5% CO2, test substances were added. Forty-eight hours after the test substances were added, the cells were fixed and stained with 0.5% (wt/vol) crystal violet in methanol and formaldehyde, and the hypertrophy was scored on a scale of 1 to 7 by microscopic evaluation. Untreated cells were used as the negative control and scored as a 3. Toxic effects were scored from 0 to 2. The positive control in each assay was 100 μmol/L phenylephrine, which was scored as 7.
The myocytes were plated in 4-chamber Lab Tek™ glass chamber slides pre-coated for 8 hours with 4% (vol/vol) fetal calf serum in D-MEM/F12 medium and cultured for 24 hours. They were exposed to test substances for 48 hours and then washed 3× in phosphate buffered saline (PBS) and fixed in 95% (vol/vol) ethanol for 15 minutes. The slides were then washed 3×0 in PBS with 0.1% (vol/vol) Tween-20™ surfactant, blocked for 30 minutes with 1% (wt/vol) BSA in PBS with 0.1% Tween-20™ surfactant, and incubated with phallacidin conjugated to BODIPY FL™ brand reagent (10 μg/mL in 1% BSA in PBS) (Molecular Probes, Eugene Oreg.) for 40 minutes to stain the f-actin present in the contractile fibers. The slides were then washed 3× with PBS in 0.1% Tween-20™ surfactant. Images of the phallacidin-stained cells were acquired on a Ultima™ laser-scanning confocal microscope (Meridian Instruments, Okemos, Mich.). A 1.4 NA 60×™ oil-immersion objective was utilized coupled with 488-nm excitation, with the resulting fluorescence measured following a 525-nm long-pass filter. […] The final images were constructed with a maximum fluorescence projection algorithm by compressing the multiple z or depth images into a single two-dimensional representation.

[2] = tested on: neonatal rat cardiac ventricular myocytes; experiment: Neonatal rat cardiac myocyte hypertrophy assay (crystal violet stain, microscopic hypertrophy score); format: cell-based
From the text: A miniaturized assay is preferably used to assay the suspected antagonist(s) for hypertrophy-inhibiting activity. In this assay the medium used allows the cells to survive at a low plating density without serum. By plating directly into this medium, washing steps are eliminated so that fewer cells are removed. The plating density is important: many fewer cells and the survival is reduced; many more cells and the myocytes begin to self-induce hypertrophy.
The preferred hypertrophy assay comprises:
(a) pre-coating the wells of 96-well tissue culture plates with a medium containing calf serum, preferably D-MEM/F-12 medium containing 4% fetal calf serum, wherein preferably the wells are incubated with the medium for about eight hours at about 37°C.;
(c) plating a suspension of myocytes in the inner 60 wells at 7.5×10^4 cells per mL in D-MEM/F-12 medium supplemented with insulin, transferrin, and aprotinin;
(d) culturing the myocytes for at least 24 hours in the presence of LIF or endothelin;
(e) adding the test substance;
(f) culturing the cells with the test substance (preferably for about 24-72 hours, more preferably for about 48 hours); and
(g) evaluating hypertrophy, preferably after crystal violet stain, by microscopic examination.
as §1

[3] = tested on: neonatal rat cardiac ventricular myocytes; conditions: neonatal rat cardiac myocytes in culture; Pennica et al. 1995; cited from earlier work

CC[C@H](C)[C@H](NC(=O)[C@H](CC(=O)O)NC(=O)[C@H](CC(C)C)NC(=O)[C@H](Cc1c[nH]cn1)NC(=O)[C@@H]1CSSC[C@H](N)C(=O)N[C@@H](CO)C(=O)N[C@H]2CSSC[C@H](NC(=O)[C@H](CCC(=O)O)NC(=O)[C@H](CCCCN)NC(=O)[C@H](CC(=O)O)NC(=O)[C@H](CCSC)NC(=O)[C@H](CC(C)C)NC(=O)[C@H](CO)NC(=O)[C@H](CO)NC2=O)C(=O)N[C@@H](C(C)C)C(=O)N[C@@H](Cc2ccc(O)cc2)C(=O)N[C@@H](Cc2ccccc2)C(=O)N1)C(=O)N[C@H](C(=O)N[C@@H](Cc1c[nH]c2ccccc12)C(=O)O)[C@@H](C)CC [endothelin-1]
morphology of myocytes ([1]; 48-hour exposure to maximal concentrations): more compact with no processes
organization of contractile fibers (f-actin) [1]: not organized in parallel, had a tangled appearance, and did not show prominent banding
hypertrophic response (myocyte cell size and ANP production) ([2]; purified factors, even at nanomolar concentrations): partial hypertrophic responses

CC(C)C[C@@H]1NC(=O)[C@@H](C(C)C)NC(=O)[C@@H]2CCCN2C(=O)[C@@H](CC(=O)O)NC(=O)[C@@H](Cc2c[nH]c3ccccc23)NC1=O [BQ-123] (cyclo(L[dW][dD]P[dV]))
morphology of myocytes treated with NCM plus inhibitor ([1]; NCM and BQ-123 or LIF Mab): resembled those treated with purified LIF
inhibition of NCM hypertrophy activity ([2]; FIG. 3, 100 μmol/L BQ-123, 50 μg/mL LIF Mab): partially inhibited
blocking of hypertrophy activity induced by endothelin-1 ([2]; FIG. 4A/5A, BQ-123 1-100 μmol/L, LIF Mab 0.5-50 μg/mL): blocked
blocking/neutralization of hypertrophy activity induced by mouse LIF ([2]; FIG. 4B/5B, BQ-123 1-100 μmol/L, LIF Mab 0.5-50 μg/mL): not
blocking of hypertrophy activity induced by phenylephrine ([2]; FIG. 4C/5C, BQ-123 1-100 μmol/L, LIF Mab 0.5-50 μg/mL): not
blocking of hypertrophy activity induced by CT-1 ([2]; FIG. 4D/5D, BQ-123 1-100 μmol/L, LIF Mab 0.5-50 μg/mL): not
effect on myocyte morphology by itself ([2]; inhibitor alone, no inducer): no effect

CNC[C@H](O)c1cccc(O)c1 [phenylephrine]
organization of contractile fibers (f-actin) [1]: organized in parallel arrays with prominent banding
hypertrophy score (positive control) ([2]; 100 μmol/L phenylephrine, scale 1 to 7, untreated 3): 7

B1: CT-1: cardiotrophin-1, member of the family of proteins that bind to GH/cytokine receptors (protein, UniProt Q16619 1-201, looked up)
Cardiotrophin-1: MSRREGSLEDPQTDSSVSLLPHLEAKIRQTHSLAHLLTKYAEQLLQEYVQLQGDPFGLPSFSPPRLPVAGLSAPAPSHAGLPVHERLRLDAAALAALPPLLDAVCRRQAELNPRAPRLLRRLEDAARQARALGAAVEALLAALGAANRGPRAEPPAATASAASATGVFPAKVLGLRVCGLYREWLSRTEGDLGQLLPGGSA
hypertrophy activity among proteins that bind GH/cytokine receptors [3]: most potent hypertrophy activity

— patent US6653287B1, “Use of leukemia inhibitory factor and endothelin antagonists” (Genentech, Inc., priority 1995, dated 2003)
